System: 429239-143-T-J1-PDC complex spheroid viability
Assay: Anticancer human tumor 429239-143-T-J1-PDC patient-derived small cell lung carcinoma cell line growth inhibition [POLQ]
Conditions: for IC50: curve of first compound; for viability, T/C: stronger effect = lower value
Summary of the method: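 Three-cell-type spheroids modelling solid tumor plus stroma served as the readout system; POL inhibitors were tested individually and in combination, concentration ranges set by clinical Cmax where known.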

[1] = second compound 0.0316 µM, first compound 0.0316 µM
[2] = second compound 0.0316 µM, first compound 0.1 µM
[3] = second compound 0.0316 µM, first compound 0.316 µM
[4] = second compound 0.0316 µM, first compound 1 µM
[5] = second compound 0.0316 µM, first compound 3.16 µM
[6] = second compound 0.0316 µM, first compound 10 µM
[7] = second compound 0.1 µM, first compound 0.0316 µM
[8] = second compound 0.1 µM, first compound 0.1 µM
[9] = second compound 0.1 µM, first compound 0.316 µM
[10] = second compound 0.1 µM, first compound 1 µM
[11] = second compound 0.1 µM, first compound 3.16 µM
[12] = second compound 0.1 µM, first compound 10 µM
[13] = second compound 0.316 µM, first compound 0.0316 µM
[14] = second compound 0.316 µM, first compound 0.1 µM
[15] = second compound 0.316 µM, first compound 0.316 µM
[16] = second compound 0.316 µM, first compound 1 µM
[17] = second compound 0.316 µM, first compound 3.16 µM
[18] = second compound 0.316 µM, first compound 10 µM
[19] = second compound 1 µM, first compound 0.0316 µM
[20] = second compound 1 µM, first compound 0.1 µM
[21] = second compound 1 µM, first compound 0.316 µM
[22] = second compound 1 µM, first compound 1 µM
[23] = second compound 1 µM, first compound 3.16 µM
[24] = second compound 1 µM, first compound 10 µM
[25] = second compound 3.16 µM, first compound 0.0316 µM
[26] = second compound 3.16 µM, first compound 0.1 µM
[27] = second compound 3.16 µM, first compound 0.316 µM
[28] = second compound 3.16 µM, first compound 1 µM
[29] = second compound 3.16 µM, first compound 3.16 µM
[30] = second compound 3.16 µM, first compound 10 µM
[31] = second compound 10 µM, first compound 0.0316 µM
[32] = second compound 10 µM, first compound 0.1 µM
[33] = second compound 10 µM, first compound 0.316 µM
[34] = second compound 10 µM, first compound 1 µM
[35] = second compound 10 µM, first compound 3.16 µM
[36] = second compound 10 µM, first compound 10 µM
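Note: luminescence signal used as surrogate measure of viable cells; spheroids exposed to compounds for seven days before readout.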
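Throughout, for viability, T/C: 100% = DMSO vehicle control viability as luminescence relative to vehicle.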

## O=c1[nH]cc(F)c(=O)[nH]1 + Nc1ccc(C#CCN(C(=O)Cc2ncc(C(F)(F)F)cc2C(F)(F)F)c2ccc(F)cc2)nn1
Second compound 0.0316 µM
  IC50: 3.24 µM
Second compound 0.1 µM
  IC50: 3.29 µM
Second compound 0.316 µM
  IC50: 4.05 µM
Second compound 1 µM
  IC50: 4.13 µM
Second compound 3.16 µM
  IC50: 2.53 µM
Second compound 10 µM
  IC50: 3.17 µM
[1]
  viability, T/C: 98.3%
[2]
  viability, T/C: 105%
[3]
  viability, T/C: 96.6%
[4]
  viability, T/C: 80.8%
[5]
  viability, T/C: 50.7%
[6]
  viability, T/C: 31.6%
[7]
  viability, T/C: 107%
[8]
  viability, T/C: 105%
[9]
  viability, T/C: 104%
[10]
  viability, T/C: 81%
[11]
  viability, T/C: 51.5%
[12]
  viability, T/C: 35.2%
[13]
  viability, T/C: 100%
[14]
  viability, T/C: 110%
[15]
  viability, T/C: 104%
[16]
  viability, T/C: 82.8%
[17]
  viability, T/C: 56.7%
[18]
  viability, T/C: 30.7%
[19]
  viability, T/C: 115%
[20]
  viability, T/C: 99.7%
[21]
  viability, T/C: 105%
[22]
  viability, T/C: 77.9%
[23]
  viability, T/C: 56.3%
[24]
  viability, T/C: 31.5%
[25]
  viability, T/C: 98.1%
[26]
  viability, T/C: 105%
[27]
  viability, T/C: 102%
[28]
  viability, T/C: 80.2%
[29]
  viability, T/C: 43.3%
[30]
  viability, T/C: 32.1%
[31]
  viability, T/C: 104%
[32]
  viability, T/C: 97.6%
[33]
  viability, T/C: 106%
[34]
  viability, T/C: 83.1%
[35]
  viability, T/C: 51.1%
[36]
  viability, T/C: 34.1%

## CCc1c2c(nc3ccc(O)cc13)-c1cc3c(c(=O)n1C2)COC(=O)[C@]3(O)CC + COC1C(OC(N)=O)C(O)C(Oc2ccc3c(O)c(NC(=O)c4ccc(O)c(CC=C(C)C)c4)c(=O)oc3c2C)OC1(C)C
Second compound 0.0316 µM
  IC50: < 0.00316 µM
Second compound 0.1 µM
  IC50: < 0.00316 µM
Second compound 0.316 µM
  IC50: < 0.00316 µM
Second compound 1 µM
  IC50: < 0.00316 µM
Second compound 3.16 µM
  IC50: < 0.00316 µM
Second compound 10 µM
  IC50: < 0.00316 µM
Second compound 0.0316 µM, first compound 0.00316 µM
  viability, T/C: 19.1%
Second compound 0.0316 µM, first compound 0.01 µM
  viability, T/C: 17.6%
[1]
  viability, T/C: 17.5%
[2]
  viability, T/C: 20%
[3]
  viability, T/C: 17.5%
[4]
  viability, T/C: 8.92%
Second compound 0.1 µM, first compound 0.00316 µM
  viability, T/C: 17%
Second compound 0.1 µM, first compound 0.01 µM
  viability, T/C: 17.4%
[7]
  viability, T/C: 17.8%
[8]
  viability, T/C: 20.6%
[9]
  viability, T/C: 14%
[10]
  viability, T/C: 5.7%
Second compound 0.316 µM, first compound 0.00316 µM
  viability, T/C: 17.4%
Second compound 0.316 µM, first compound 0.01 µM
  viability, T/C: 18.3%
[13]
  viability, T/C: 17.3%
[14]
  viability, T/C: 14.5%
[15]
  viability, T/C: 15.6%
[16]
  viability, T/C: 5.23%
Second compound 1 µM, first compound 0.00316 µM
  viability, T/C: 21.4%
Second compound 1 µM, first compound 0.01 µM
  viability, T/C: 18.1%
[19]
  viability, T/C: 18%
[20]
  viability, T/C: 19.1%
[21]
  viability, T/C: 12.5%
[22]
  viability, T/C: 6.46%
Second compound 3.16 µM, first compound 0.00316 µM
  viability, T/C: 20.1%
Second compound 3.16 µM, first compound 0.01 µM
  viability, T/C: 14.8%
[25]
  viability, T/C: 18.4%
[26]
  viability, T/C: 18.5%
[27]
  viability, T/C: 15.3%
[28]
  viability, T/C: 5.6%
Second compound 10 µM, first compound 0.00316 µM
  viability, T/C: 18.1%
Second compound 10 µM, first compound 0.01 µM
  viability, T/C: 18.9%
[31]
  viability, T/C: 18.2%
[32]
  viability, T/C: 15.8%
[33]
  viability, T/C: 14.8%
[34]
  viability, T/C: 5.55%

## C#Cc1c(F)ccc2cc(O)cc(-c3ncc4c(N5CC6CCC(C5)N6)nc(OCC56CCCN5CC(F)C6)nc4c3F)c12 (stereo unspecified) + Cc1cccc(N(C)C(=O)C2C(O)CCN2c2nc(C)cc(C(F)(F)F)c2C#N)c1
Second compound 0.0316 µM
  IC50: > 10 µM
Second compound 0.1 µM
  IC50: > 10 µM
Second compound 0.316 µM
  IC50: > 10 µM
Second compound 1 µM
  IC50: > 10 µM
Second compound 3.16 µM
  IC50: > 10 µM
Second compound 10 µM
  IC50: > 10 µM
[1]
  viability, T/C: 91%
[2]
  viability, T/C: 92.4%
[3]
  viability, T/C: 97.1%
[4]
  viability, T/C: 98.9%
[5]
  viability, T/C: 98.9%
[6]
  viability, T/C: 100%
[7]
  viability, T/C: 117%
[8]
  viability, T/C: 110%
[9]
  viability, T/C: 89.7%
[10]
  viability, T/C: 101%
[11]
  viability, T/C: 91.1%
[12]
  viability, T/C: 103%
[13]
  viability, T/C: 99.6%
[14]
  viability, T/C: 100%
[15]
  viability, T/C: 98.5%
[16]
  viability, T/C: 93.8%
[17]
  viability, T/C: 89.2%
[18]
  viability, T/C: 93.5%
[19]
  viability, T/C: 101%
[20]
  viability, T/C: 108%
[21]
  viability, T/C: 105%
[22]
  viability, T/C: 92.5%
[23]
  viability, T/C: 89.9%
[24]
  viability, T/C: 92.5%
[25]
  viability, T/C: 90.2%
[26]
  viability, T/C: 88.4%
[27]
  viability, T/C: 106%
[28]
  viability, T/C: 86.3%
[29]
  viability, T/C: 95.4%
[30]
  viability, T/C: 92%
[31]
  viability, T/C: 100%
[32]
  viability, T/C: 78.3%
[33]
  viability, T/C: 101%
[34]
  viability, T/C: 86%
[35]
  viability, T/C: 103%
[36]
  viability, T/C: 100%

From PubChem BioAssay AID1963845 (Molecular Pharmacology Branch, DTP, NCI, 2024)
